Experimental data reported in publication PMC12473906, “Comparing the Altis RepliGut Organoid System to MDCK Monolayers in Predicting the Oral Absorption of Lenalidomide” (Pharmaceutics, 2025).
Like-named read-outs stand apart in the source and are kept apart here.

Experiments:
[1] = Lenalidomide pharmacokinetic study in rats (IV and oral); format: in vivo, Sprague Dawley rats; settings: for AUC / Cmax / Tmax / half-life / bioavailability: plasma; for bioavailability: po
Method: All animal pharmacokinetic experiments were carried out by WuXi (Shanghai, China). Animals were kept on a light-dark cycle and allowed to eat and drink ad libitum. Animals receiving oral doses were fasted overnight. Animals’ condition and behavior were monitored throughout the experiment for signs of pain and distress. We utilized only male rats because similar pharmacokinetics in both genders was previously reported and no dosage adjustment is recommended based on gender, in order to reduce the number of animals required.
Male Sprague Dawley rats (230–280 g) (n = 3 per group) were administered lenalidomide (0.1, 1, 2, 10, and 50 mg/kg). The vehicles for oral and intravenous dosing were 0.6% methylcellulose A15 + 0.2% Tween 80 in water and 10% DMSO + 60% propylene glycol + 30% water, respectively. Serum samples were obtained prior to administration (predose) and at 0.033, 0.083, 0.25, 0.5, 1, 2, 4, and 6 h postdose from the IV group and at 0.083, 0.25, 0.5, 1, 2, 4, 8, and 24 h from the oral groups. Approximately 250 μL was collected at each time point via a catheter at the femoral artery from each rat into prechilled commercial K2-EDTA tubes on wet ice. Samples were centrifuged (3200× g for 10 min at 4 °C) within one hour of collection and frozen at −60 °C or lower before analysis. Approximately 5 mL of whole blood was collected from additional blank animals into prechilled commercial K2-EDTA tubes on wet ice and pooled to serve as blank plasma for bio-analysis. […] Animals were kept in metabolic cages to collect urine, feces, and bile at different periods after dosing. Wet ice was added during the whole collection process for urine and feces. Feces was homogenized in water, and the urine samples and feces homogenates were kept at −70 ± 10 °C until LC-MS/MS analysis. Pharmacokinetic parameters were calculated by non-compartmental methods, as described in Gibaldi and Perrier, using Phoenix® WinNonlin® version 8.5 (Certara L.P., Radnor, PA, USA).
The human equivalent dose (HED) was calculated based on the previously reported AUC after a typical dose in humans. The percentage of lenalidomide excreted in the feces/urine in 24 h was calculated by multiplying the fecal weight/urine volume by its measured lenalidomide concentration and dividing by the total amount of lenalidomide administered.(2) Percentage excreted in feces=100 · Feces weight ·Feces concentration /Dose volume ·Dose concentration (3) Percentage excreted in urine=100 · Urine volume ·Urine concentration /Dose volume ·Dose concentration
For the in vivo study, mass spectrometry detection of lenalidomide was accomplished using a SCIEX QTrap 6500+. Transition pairs used for quantification were as follows: lenalidomide (260.1 → 149.1 Da), labetalol (329.1 → 294.1 Da), indomethacin (357.9 → 139.0 Da), and loperamide (477.1 → 266.2 Da). Separation was achieved using a Waters Acquity UPLC system.
For urine samples, mobile phase A was 0.1% NH4OH and 2 mM NH4OAc in water/acetonitrile (v:v, 95:5), and mobile phase B was 0.1% NH4OH and 2 mM NH4OAc in acetonitrile/water (v:v, 95:5). Mobile phases were operated at the following gradient: initial, 1% B; 0–0.2 min, 1% B; 0.2–1, 30% B; 1–1.5, 100% B; 1.5–1.9, 100% B; 1.9–1.91, 1% B; and 1.91–2, 1% B. The column used was a Waters Acquity UPLC BEH C18 1.7 μm (2.1 × 50 mm) with flow rate of 0.6 mL/min and column oven temperature of 60 °C.
For plasma and feces samples, mobile phase A was 0.1% formic acid and 2 mM HCOONH4 in water, and mobile phase B was 0.1% formic acid and 2 mM HCOONH4 in acetonitrile/water (v:v, 95:5). Mobile phases were operated at the following gradient: initial, 1% B; 0–0.3 min, 1% B; 0.3–1.5, 30% B; 1.5–2.1, 95% B; 2.1–2.4, 95% B; 2.4–2.41, 1% B; and 2.41–2.5, 1% B. The column used was a Waters Acquity UPLC HSS T3 1.8 μm (2.1 × 50 mm) with a flow rate of 0.6 mL/min and a column oven temperature of 45 °C.
For in vivo studies, feces samples were homogenized at a ratio of 1 g feces to 9 mL buffer. […]

BCRP = tested on: BCRP; parameters: method as in PMID 24627218; settings: vesicles with BCRP; cited from earlier work
gMDCK monolayers = experiment: gMDCK (P-gp knockout MDCK) monolayer permeability assay
[2] = RepliGut human jejunal organoid-derived monolayer permeability assay; settings: human
[3] = tested on: human intestinal organoid-derived monolayer (RepliGut); experiment: as above
[4] = Sprague Dawley, rat, male rats, 0.1 mg/kg PO
[5] = Sprague Dawley, rat, male rats, 1 mg/kg IV
[6] = Sprague Dawley, rat, male rats, 2 mg/kg PO
[7] = Sprague Dawley, rat, male rats, 10 mg/kg PO
[8] = Sprague Dawley, rat, male rats, 50 mg/kg PO
[9] = pH 7.4, with elacridar + Ko143 (concentrations not given)

dose excreted ([1]; Sprague Dawley, rat, feces, male rats, 0.1 mg/kg PO, read-out: Fecal Recovery): 12%
dose excreted ([1]; Sprague Dawley, rat, feces, male rats, 1 mg/kg IV, 24 h, read-out: Fecal Recovery): 3.2%
dose excreted ([1]; Sprague Dawley, rat, feces, male rats, 2 mg/kg PO, read-out: Fecal Recovery): 12%
dose excreted ([1]; Sprague Dawley, rat, feces, male rats, 10 mg/kg PO, read-out: Fecal Recovery): 10%
dose excreted ([1]; Sprague Dawley, rat, feces, male rats, 50 mg/kg PO, read-out: Fecal Recovery): 16%
AUC [1, 4]: 0.29 µM·h
Cmax [1, 4]: 0.2 µM
Tmax [1, 4]: 25.2 min
half-life [1, 4]: 52.2 min
Cmax [1, 5]: 4.9 µM
Tmax [1, 5]: 1.8 min
half-life [1, 5]: 72 min
AUC ([1]; Sprague Dawley, rat, male rats, 1 mg/kg IV, serum, n=3): 2.34 µM·h
AUC [1, 6]: 5.44 µM·h
Cmax [1, 6]: 1.6 µM
Tmax [1, 6]: 19.8 min
half-life [1, 6]: 84 min
AUC [1, 7]: 15.4 µM·h
Cmax [1, 7]: 8.4 µM
Tmax [1, 7]: 25.2 min
half-life [1, 7]: 84 min
AUC [1, 8]: 79.4 µM·h
Cmax [1, 8]: 29 µM
Tmax [1, 8]: 30 min
half-life [1, 8]: 162 min
dose excreted ([1]; Sprague Dawley, rat, urine, male rats, 0.1 mg/kg PO, read-out: Urinary Recovery): 47%
dose excreted ([1]; Sprague Dawley, rat, urine, male rats, 1 mg/kg IV, 24 h, unchanged drug, read-out: Urinary Recovery): 87%
dose excreted ([1]; Sprague Dawley, rat, urine, male rats, 2 mg/kg PO, read-out: Urinary Recovery): 45%
dose excreted ([1]; Sprague Dawley, rat, urine, male rats, 10 mg/kg PO, read-out: Urinary Recovery): 48%
dose excreted ([1]; Sprague Dawley, rat, urine, male rats, 50 mg/kg PO, read-out: Urinary Recovery): 43%
BA ([1]; male rats, 0.1 mg/kg PO): 122%
BA ([1]; male rats, 1 mg/kg IV (reference)): 100%
BA ([1]; male rats, 2 mg/kg PO): 116%
BA ([1]; male rats, 10 mg/kg PO): 66.0%
BA ([1]; male rats, 50 mg/kg PO): 67.9%
dose excreted ([1]; male, Sprague Dawley, rat, feces, rats, across oral doses, read-out: fecal recovery): ~12%
bioavailability ([1]; male, Sprague Dawley, rat, rats, all doses): 68 to 120%
bioavailability ([1]; male, Sprague Dawley, rat, rats, low doses): > 100%
Tmax ([1]; male, Sprague Dawley, rat, rats, across oral doses): ~30 min
CL renal ([1]; male, Sprague Dawley, rat, urine and plasma, iv, 1 mg/kg, read-out: CLR (renal clearance)): 24 mL/min/kg
dose excreted ([1]; male, Sprague Dawley, rat, urine, rats, all oral doses, read-out: Urinary recovery): ~45%
Human Equivalent Dose ([1]; rat 2 mg/kg PO): ~26 mg
Human Equivalent Dose ([1]; rat 10 mg/kg PO): ~73 mg
Human Equivalent Dose ([1]; rat 50 mg/kg PO): ~376 mg
effect of 4% bovine serum albumin in the receiver side on apparent permeability (gMDCK monolayers; gMDCK, sink condition): did not increase
effect of shaking gMDCK cells during the permeability assay on permeability (gMDCK monolayers; shaking transwell plate at 1000 rpm): did not significantly change
Papp A→B at 3 h ([2]; pH 7.4): 0.58 ×10⁻⁶ cm/s
Papp B→A at 3 h ([2]; pH 7.4): 2.64 ×10⁻⁶ cm/s
Papp at 3 h ([2]; pH 7.4): ~0.6 ×10⁻⁶ cm/s
Papp at 3 h, 500 µM ([2]; pH 7.4): 0.58 ×10⁻⁶ cm/s
efflux ratio at 3 h ([2]; pH 7.4, Efflux Ratio, human jejunal organoids, Papp B to A/Papp A to B): 4.6
efflux ratio at 3 h ([2]; pH 7.4, efflux ratio, intestinal organoids, all concentrations): 3 to 4
efflux ratio at 3 h ([2]; pH 7.4, with elacridar 5 µM + Ko143 1 µM, Efflux Ratio, human jejunal organoids + elacridar (5 μM) + Ko143 (1 μM)): ~1
Papp A→B at 3 h [2, 9]: 0.52 ×10⁻⁶ cm/s
Papp B→A at 3 h [2, 9]: 0.8 ×10⁻⁶ cm/s
Efflux Substrate ([3]; Yes/No): Yes
intracellular concentrations in intestinal organoids with and without elacridar ([3]; apical dosing): similar
accumulation in cells, gMDCK vs organoids ([3]; basolateral dosing): greater in gMDCK cells than organoids
intracellular accumulation in organoids, lower than gMDCK ([3]; basolateral to apical direction): approximately 10 fold
accumulation in the cellular compartment, organoid vs gMDCK monolayers ([3]; dosed apically): no significant difference
apical to basolateral apparent permeability in intestinal organoids compared with gMDCK monolayers ([3]; organoid vs gMDCK): significantly higher
basolateral to apical permeability in intestinal organoids compared with gMDCK cells ([3]; organoid vs gMDCK): significantly higher
Compound: Nc1cccc2c1CN(C1CCC(=O)NC1=O)C2=O (stereo not drawn) [Lenalidomide]
BCRP substrate (BCRP): not a BCRP substrate
